The format of the series is physicochemical. On the procedure: A model degradation of an ABS pro-drug of gemcitabine attached via a di-isopropyl silyl ether linkage (iPr-GEM) was conducted.
Asymmetric bifunctional silyl ether pro-drugs were synthesized and analyzed as potential materials for controlled drug delivery in nanoparticles. Using one-step synthesis, numerous pro-drugs from the chemotherapeutics camptothecin, dasatinib, and gemcitabine were prepared. These ABS pro-drugs were placed under acidic conditions, such as those found […], and subsequent to degradation of the reversible covalent linkage(s), the pro-drug reverted back to the original active form of the chemotherapeutic. […] The rate of release increased as the steric bulk of the substituent on the Si atom decreased; Rate of Release: Et-GEM>iPr-GEM>>tBu-GEM). […] These ABS pro-drugs can be incorporated into nanoparticles and medical devices capable of releasing drugs in a controlled and tunable fashion.

Each structure is given as a SMILES string.

`C=CC(=O)OCCO[Si](OC[C@H]1O[C@@H](n2ccc(N)nc2=O)C(F)(F)[C@@H]1O)(C(C)C)C(C)C` [iPr-GEM, Diisopropyl ABS of Gemcitabine]: the “degradation of silyl ether linkage on exposure to acid” value is “acid sensitive and reverts back to the original starting materials”. In the case of `C=CC(=O)OCCO[Si](CC)(CC)O[C@]1(CC)C(=O)OCc2c1cc1n(c2=O)Cc2cc3ccccc3nc2-1` [Et-CPT, Diethyl ABS of Camptothecin], the “degradation of silyl ether linkage on exposure to acid” value is “degraded to yield both unmodified camptothecin and HEA”.

(Values after patent US9913916B2, “Asymmetric bifunctional silyl monomers and particles thereof as prodrugs and delivery vehicles for pharmaceutical, chemical and biological agents” (The University of North Carolina at Chapel Hill, priority 2010, dated 2018).)
